Measured values from US5736528A, “N^6 -(epoxynorborn-2-yl) adenosines as A1 adenosine receptor agonists” (priority 1995, dated 1998).
Like-named read-outs stand apart in the source and are kept apart here.

What was measured:
A1-adenosine receptor [1] = biological target: T1, A1-adenosine receptor (Mesocricetus auratus, UniProt A0A1U8BVR4); conditions: EC50, text to Table 8, DDT cells
T1 sequence (A0A1U8BVR4 1-326): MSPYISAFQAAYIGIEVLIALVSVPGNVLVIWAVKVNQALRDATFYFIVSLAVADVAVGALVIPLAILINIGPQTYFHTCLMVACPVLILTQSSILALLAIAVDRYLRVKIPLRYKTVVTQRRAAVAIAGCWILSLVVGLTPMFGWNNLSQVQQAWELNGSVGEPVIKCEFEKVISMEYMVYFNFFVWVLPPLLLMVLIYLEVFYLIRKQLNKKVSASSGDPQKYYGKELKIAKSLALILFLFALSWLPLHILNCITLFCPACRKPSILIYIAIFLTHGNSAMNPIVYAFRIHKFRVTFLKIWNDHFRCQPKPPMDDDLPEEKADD
Description: (§2) The agonist compounds were tested for their potency to inhibit (-)isoproterenol stimulated cAMP accumulation in DDT1 MF-2 (DDT) cells. This effect is mediated through the action of the A1 -adenosine receptor (A1 AR).
(§3) Cells were seeded at 0.2-1.0×10^4 cells/cm^2 and subcultured twice weekly after detachment using divalent cation-free phosphate-buffered saline containing 1 mM ethylenediamine tetraacetic acid (EDTA). Experiments were performed on cells that were grown to 1 day preconfluent.
(§4) The potency of the A1 AR agonists was determined by their ability to inhibit (-)isoproterenol-stimulated cAMP accumulation. […] After cooling to room temperature, the tubes were centrifuged for 2 minutes at 10,000 g, and supernatants were saved.
(§5) Briefly, an aliquot of the supernatant (50 μL) was incubated in a volume of 0.2 mL containing 25 mM Tris-HCl buffer (pH 7.0), 8 mM theophylline, 0.8 pmol [^3 H]cAMP (31.4 Ci/mmol, New England Nuclear) and 20 μg of bovine heart cAMP dependent protein kinase (Sigma Chemical Co.) at 4° C. for 1 hour. At the end of the incubation, 75 μl of a 50% (v/v) hydroxyapatite-water suspension was added to each tube followed by 4 ml of ice-cold 10 mM Tris-HCl buffer (pH 7.0). The suspension was then poured onto a Whatman GF/B glass fiber filter under reduced pressure, the filter was washed with a further 6 ml of ice-cold buffer, placed in a scintillation vial with 4 mL of Liquiscint (National Diagnostics), and the radioactivity determined in a liquid scintillation counter. The amount of cAMP in the samples was calculated from a standard curve using known concentrations of unlabeled cAMP.

[2] = biological target: T2, rat brain adenosine A2 receptors (Rattus norvegicus, UniProt P30543); assay: Antagonism of radioligand binding to rat brain adenosine A2 receptors
T2 construct: rat brain adenosine A1 and A2 receptors; from tissue; host or cells: rat brain
Source text: (§6) rat brain adenosine A1 and A2 receptors ("IC50 "* values)
(§7) *"IC50 " refers to the concentration at which radioligand binding to
receptors was 50% inhibited.

rats = assay: Cumulative urine output (diuretic activity) in rats; assay type: in vivo, rat
A1 receptor [3] = biological target: T3, A1 receptor (Mesocricetus auratus, UniProt A0A1U8BVR4); assay: A1 receptor binding with [3H]CPX in intact DDT1 MF2 cells
T3 sequence (A0A1U8BVR4 1-326): T1 sequence (A0A1U8BVR4 1-326)
Source text: Radioligand binding studies.
(§8) Values are mean ± SEM of triplicate determinations in each
of several (n) preparations.

phosphodiesterase = assay: Phosphodiesterase activity in homogenates of DDT1 MF-2 cells; assay type: biochemical; conditions: DDT1 MF-2 homogenate, 45 min, 30° C.
Description: Cells were homogenized in 40 mM Tris buffer at pH 8.0, and the whole homogenate was used in the enzyme assays. PDE activity was determined by incubating homogenate (0.4 mg protein) in Tris buffer containing 20 mM MgCl2, 4 mM mercaptoethanol, 0.06 mg bovine serum albumin, 0.4 mM cAMP 130 nCi of [^3 H]cAMP and the indicated concentrations of ENX or IBMX for 45 min at 30° C. Blank incubations were carried out in parallel assays without the homogenate. At the end of the incubation, the suspensions were incubated in a boiling water bath for 2 minutes, transferred to an ice-water bath for 2 minutes and 0.1 mg of snake venom phosphodiesterase was added. The suspensions were incubated for 10 minutes at 30° C., and the adenosine formed was isolated by ion exchange chromatography. […] The amount of adenosine formed was linear over the incubation period used.

A1 receptor [4] = biological target: T4, A1 receptor (Cavia porcellus, UniProt P47745); assay: S-H interval prolongation by adenosine in isolated heart, antagonism by ENX; design: species or system guinea pig
T4 construct: isolated perfused guinea pig heart; from tissue; host or cells: isolated perfused guinea pig heart
T4 sequence (P47745 1-326): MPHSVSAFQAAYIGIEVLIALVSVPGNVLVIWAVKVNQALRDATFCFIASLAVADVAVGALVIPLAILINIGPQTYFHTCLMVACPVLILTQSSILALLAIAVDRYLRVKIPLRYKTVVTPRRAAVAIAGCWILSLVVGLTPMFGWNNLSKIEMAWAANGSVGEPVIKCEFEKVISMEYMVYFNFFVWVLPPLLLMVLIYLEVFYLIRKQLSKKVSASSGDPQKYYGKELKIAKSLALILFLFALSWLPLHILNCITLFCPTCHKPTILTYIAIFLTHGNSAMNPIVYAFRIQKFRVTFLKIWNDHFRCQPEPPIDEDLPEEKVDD
Source text: The height of each bar graph presents the mean±SEM of 4 experiments.

A1 receptor [5] = biological target: T4, A1 receptor; assay: Antagonism of A1 receptor-mediated negative dromotropic effect (S-H interval prolongation) of CCPA, Schild analysis, isolated perfused heart; design: species or system guinea pig; conditions: for Slope of Schild plot: mean ± S.E.M.
Source text: Potency of various alkylxanthines to antagonize A1
cardiac response: results of Schild analysis.
Cardiac response: antagonism of the negative dromotropic effect of the
selective A1 agonist CCPA.

A2 receptor [6] = biological target: T5, A2 receptor (Cavia porcellus, UniProt P46616); assay: Antagonism of A2 receptor-mediated coronary vasodilation (coronary conductance) caused by adenosine, isolated perfused heart; design: species or system guinea pig
T5 construct: isolated perfused guinea pig heart; from tissue; host or cells: isolated perfused guinea pig heart (coronary circulation)
Source text: The values are the mean±SEM from five guinea pig hearts.
of a maximum coronary vasodilation caused by adenosine. Values in

A1 adenosine receptor [7] = biological target: A1 adenosine receptor (Cavia porcellus, UniProt P47745); assay: A1 receptor binding with [3H]CPX in forebrain membranes (Table 5); design: guinea pig forebrain (A1 receptor); from tissue; host or cells: guinea pig forebrain membranes; species or system guinea pig
Source text: (§9) Values are mean ± S.E.M. of triplicate determinations in
each of four preparations.

[8] = biological target: T6, rat brain adenosine A1 receptors (Rattus norvegicus, UniProt P25099); assay: Antagonism of radioligand binding to rat brain adenosine A1 receptors
T6 construct: rat brain A1 adenosine receptors; from tissue; host or cells: rat brain
T6 sequence (P25099 1-326): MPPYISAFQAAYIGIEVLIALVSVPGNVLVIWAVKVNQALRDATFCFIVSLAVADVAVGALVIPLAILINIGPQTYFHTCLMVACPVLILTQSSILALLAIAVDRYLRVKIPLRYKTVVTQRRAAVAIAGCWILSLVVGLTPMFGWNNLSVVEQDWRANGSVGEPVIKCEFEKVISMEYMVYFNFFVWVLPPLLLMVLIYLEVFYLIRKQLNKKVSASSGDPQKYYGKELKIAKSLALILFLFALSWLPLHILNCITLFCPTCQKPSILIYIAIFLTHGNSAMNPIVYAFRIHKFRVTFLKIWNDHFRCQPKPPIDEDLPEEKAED
Source text: as §6, §7
receptors was 50% inhibited.

[9] = tested on: negative dromotropic effect of carbachol or MgCl2; assay: Specificity: negative dromotropic effect of carbachol or MgCl2 in isolated heart; design: species or system guinea pig; conditions: ENX 2 nM, 2 μM
Source text: The height of each bar graph presents the mean±SEM of 4 experiments. Only the S--H interval prolongation caused by adenosine was antagonized by ENX.

A1 receptor [10] = biological target: T4, A1 receptor; assay: A1 receptor binding with [3H]CPX in brain membranes (Table 4); design: species or system guinea pig
Source text: Radioligand binding studies.
as §8
of several (n) preparations.

guinea pig hearts = assay: Left ventricular pressure and dP/dt (inotropic effect) in isolated hearts
Source text: Identical results were obtained in three other hearts.

A2 adenosine receptor = biological target: T7, A2 adenosine receptor (Cavia porcellus, UniProt P46616); assay: A2 receptor binding with [3H]CGS 21,860 in striatum membranes (Table 5); design: species or system guinea pig; conditions: mean ± S.E.M., read-out: K1, A2 (striatum)
T7 construct: from tissue; host or cells: guinea pig striatum membranes
Source text: as §9
each of four preparations.

[11] = tested on: guinea pig tracheal muscle; assay: Relaxation of tracheal muscle
Source text: (§1) However, that can be useful in treating conditions that indicate short-acting treatments.

A2 receptor [12] = biological target: T8, A2 receptor (Rattus norvegicus, UniProt P30543); assay: A2 receptor binding with [3H]NECA in PC12 cell membranes; conditions: mean ± SEM (n), read-out: Ki, PC-12
T8 construct: endogenous in cells; host or cells: PC12 cell membranes
Description: Radioligand binding studies.
A2 receptor binding was carried out with [^3 H]NECA in PC12 cell
membranes. Values are mean ± SEM of triplicate determinations in each
of several (n) preparations.

[13] = biological target: T9, rat brain A1 adenosine receptors (Rattus norvegicus, UniProt P25099); assay: Equilibrium dissociation constants for rat brain A1 adenosine receptors; assay type: binding; conditions: Table 6
T9 construct: rat brain A1 adenosine receptors; from tissue; host or cells: rat brain

A1 adenosine receptor [14] = biological target: T10, A1 adenosine receptor (Rattus norvegicus, UniProt P25099); assay: Biological activity and duration of action of ENX enantiomers; assay type: in vivo; conditions: for duration of action: S- vs R-enantiomer
T10 construct: from tissue; host or cells: whole animal
T10 sequence (P25099 1-326): T6 sequence (P25099 1-326)

[15] = tested on: serum cholesterol and heparin precipitating β-lipoproteins; assay: Serum cholesterol and heparin precipitating β-lipoproteins in mice; assay type: in vivo; conditions: 100 mg/kg per os
hydrated rat = assay: Saluretic/kaluretic activity in hydrated rat; assay type: in vivo; conditions: 30 mg/kg per os
Source text: as §1

A1 adenosine receptor [16] = biological target: A1 adenosine receptor (Homo sapiens, UniProt P30542); assay: A1 adenosine receptor agonist potency and selectivity (summary); conditions: racemic isomers
[17] = tested on: paroxysmal supraventricular tachycardia (PSVT); conditions: in vivo; cited from earlier work
[18] = Metabolism of ENX enantiomer; assay type: in vitro ADME
A1-adenosine receptor [19] = conditions: 1 μM alone; 10 min
Description: as §2, §3, §4, §5

A1-adenosine receptor [20] = conditions: 1 μM (-)isoproterenol
Description: as §2, §3, §4, §5

T2 sequence (P30543 whole entry): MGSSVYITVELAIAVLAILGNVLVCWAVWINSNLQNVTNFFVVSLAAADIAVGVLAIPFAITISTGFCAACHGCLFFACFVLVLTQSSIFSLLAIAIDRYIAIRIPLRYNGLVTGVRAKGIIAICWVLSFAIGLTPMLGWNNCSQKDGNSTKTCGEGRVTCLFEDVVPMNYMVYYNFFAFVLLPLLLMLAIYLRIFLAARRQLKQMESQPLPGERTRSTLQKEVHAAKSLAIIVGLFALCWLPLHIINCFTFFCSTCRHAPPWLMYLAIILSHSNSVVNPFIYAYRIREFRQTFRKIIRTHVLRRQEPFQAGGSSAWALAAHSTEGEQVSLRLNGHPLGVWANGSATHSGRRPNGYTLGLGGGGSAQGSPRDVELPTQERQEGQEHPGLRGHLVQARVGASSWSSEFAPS
T5 sequence (P46616 whole entry, the tested form may be a part): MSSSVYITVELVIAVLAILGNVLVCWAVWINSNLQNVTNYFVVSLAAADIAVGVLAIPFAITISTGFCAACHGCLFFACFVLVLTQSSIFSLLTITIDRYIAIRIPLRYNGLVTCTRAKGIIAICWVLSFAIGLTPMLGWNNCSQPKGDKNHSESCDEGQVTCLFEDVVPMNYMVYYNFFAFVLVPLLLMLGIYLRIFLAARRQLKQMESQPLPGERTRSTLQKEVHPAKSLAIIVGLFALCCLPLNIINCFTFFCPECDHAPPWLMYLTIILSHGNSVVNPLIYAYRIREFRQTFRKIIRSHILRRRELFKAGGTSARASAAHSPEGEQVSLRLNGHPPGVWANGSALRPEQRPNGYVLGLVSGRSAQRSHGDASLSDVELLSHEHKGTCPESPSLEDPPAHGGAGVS
A1 adenosine receptor (Homo sapiens, UniProt P30542), sequence (P30542 whole entry): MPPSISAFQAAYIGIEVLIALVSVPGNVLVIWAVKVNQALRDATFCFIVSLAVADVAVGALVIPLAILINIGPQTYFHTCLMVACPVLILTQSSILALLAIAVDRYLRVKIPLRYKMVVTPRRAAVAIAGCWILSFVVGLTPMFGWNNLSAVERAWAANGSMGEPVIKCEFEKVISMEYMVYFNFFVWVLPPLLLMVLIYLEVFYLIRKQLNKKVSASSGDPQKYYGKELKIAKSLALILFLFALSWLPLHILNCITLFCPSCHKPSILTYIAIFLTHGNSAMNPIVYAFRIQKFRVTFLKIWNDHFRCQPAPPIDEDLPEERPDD
T7 sequence (P46616 whole entry): as the sequence (P46616 whole entry, the tested form may be a part) above
T8 sequence (P30543 whole entry): as the sequence (P30543 whole entry) above

[O-][n+]1cnc2c(ncn2[C@@H]2O[C@H](CO)[C@@H](O)[C@H]2O)c1N[C@@H]1C[C@@H]2C[C@H]1[C@H]1O[C@@H]21 (relative stereo) [N^6-(exo-5,6-epoxynorborn-2-yl) adenosine-1-oxide]
EC50 (A1-adenosine receptor [1]): 403 nM

CCCn1c(=O)c2[nH]c(C3CC4CC3C3OC43)nc2n(CCC)c1=O (racemic) [ENX, 1,3-dipropyl-8-{3-oxatricyclo[3.1.2.0^2,4]oct-6(7)-yl}-xanthine]
IC50 [2]: 2100 nM
diuretic potency compared with furosemide (Lasix) (rats; rat, in vivo): at least as high as the potency of furosemide
Ki (A1 receptor [3]): 0.22 ± 0.03 nM
phosphodiesterase inhibition (phosphodiesterase): does not inhibit phosphodiesterase
antagonism of S-H prolongation caused by adenosine (A1 receptor [4]; ENX 2 nM, 2 μM, adenosine 4 μM): did antagonize
effect on S-H interval prolongation caused by adenosine (A1 receptor [4]; ENX 0.4 μM with adenosine 4 μM): completely inhibited
Kb (A1 receptor [5]): 3.6 nM
Slope of Schild plot (A1 receptor [5]): -0.91 ± 0.06
IC50 for A2 receptor-mediated coronary vasodilation (A2 receptor [6]): no effect
inhibition at 50 µM (A2 receptor [6]; read-out: inhibition of coronary vasodilation): 0%
Ki (A1 adenosine receptor [7]): 0.45 ± 0.13 nM
IC50 [8]: 1.65 nM
antagonism of negative dromotropic effect of carbachol or MgCl2 [9]: did not antagonize
Ki (A1 receptor [10]): 0.45 ± 0.22 nM
stimulus-to-His bundle interval, ENX alone (guinea pig hearts; ENX alone, up to 200 μM): no significant changes
LVP or dP/dt (guinea pig hearts; normoxic hearts, ENX 2-200 μM): no significant changes
Ki (A2 adenosine receptor): 360 ± 36 nM
tracheal smooth muscle relaxation / bronchodilation [11]: relax tracheal smooth muscle
Ki (A2 receptor [12]): 11700 nM

CCCn1c(=O)c2[nH]c([C@H]3C[C@@H]4C[C@H]3[C@H]3O[C@@H]43)nc2n(CCC)c1=O [S-ENX]
IC50 [2]: 9000 nM
diuretic activity (cumulative urine output) (rats; 0.1 mg/kg i.v., 2 hours, rats): more potent than the R-enantiomer of ENX or a racemic mixture of R-and S-enantiomers of ENX
Ki [13]: 0.98 nM
IC50 [8]: 1.15 nM
duration of action (A1 adenosine receptor [14]; listed as S-enantiomer): longer duration of action than the R-enantiomer
duration of action (A1 adenosine receptor [14]; listed as S-enantiomer of ENX): longer
share of the biological activity of racemic ENX (A1 adenosine receptor [14]; in vivo): 80-90%
serum cholesterol and heparin precipitating β-lipoproteins [15]: reduced serum cholesterol and heparin precipitating β-lipoproteins
kaluretic activity (hydrated rat): Moderate kaluretic activity
tracheal smooth muscle relaxation / bronchodilation [11]: bronchodilators
relaxation of constricted tracheal muscle ([11]; guinea pig, 100 mg/kg per os): relaxed constricted guinea pig tracheal muscle

Cn1c(=O)c2[nH]c(C3CCCC3)nc2n(C)c1=O [CPT, 8cyclopentyl-1,3-dimethylxanthine]
Ki (A1 receptor [10]; read-out: Ki, Brain): 41 ± 13 nM

OC[C@H]1O[C@@H](n2cnc3c(N[C@H]4C[C@@H]5C[C@H]4[C@H]4O[C@@H]54)ncnc32)[C@H](O)[C@@H]1O (relative stereo) [N^6-(endo-5,6-epoxynorborn-2-yl) adenosine]
EC50 (A1-adenosine receptor [1]): 1 to 2 nM
A1 agonist potency and selectivity (A1 adenosine receptor [16]): potent and highly selective agonists

CCCn1c(=O)c2[nH]c(C34CC5CC(CC3C5)C4)nc2n(CCC)c1=O [NAX, 1,3dipropyl-8-(3-noradamantyl)xanthine]
Ki (A1 receptor [3]; read-out: Ki, DDT1 MF2): 0.18 ± 0.05 nM
Kb (A1 receptor [5]; Schild analysis, numbers in parentheses are minimum and maximum KB values, read-out: KB, equilibrium dissociation constant): 1.6 nM
Slope of Schild plot (A1 receptor [5]): -0.89 ± 0.11
IC50 (A2 receptor [6]): 7100 nM
Ki (A1 receptor [10]; read-out: Ki, Brain): 3.8 ± 0.21 nM
Ki (A2 adenosine receptor): 22 ± 6.9 nM

OC[C@H]1O[C@@H](n2cnc3c(NC4CCCC4)ncnc32)[C@H](O)[C@@H]1O [CPA, N^6 -cyclopentyladenosine, reference compound]
EC50 (A1-adenosine receptor [1]): 1 to 2 nM

CCCn1c(=O)c2[nH]c(C3CCCC3)nc2n(CCC)c1=O [CPX, 8-cyclopentyl-1,3-dipropylxanthine]
Ki (A1 receptor [3]): 0.13 ± 0.01 nM
Slope of Schild plot (A1 receptor [5]): -0.81 ± 0.03

OC[C@H]1O[C@@H](n2cnc3c(N[C@@H]4C[C@@H]5C[C@H]4[C@H]4O[C@@H]54)ncnc32)[C@H](O)[C@@H]1O (relative stereo) [N^6-(exo-5,6-epoxynorborn-2-yl) adenosine]
EC50 (A1-adenosine receptor [1]): 1 to 2 nM
A1 agonist potency and selectivity (A1 adenosine receptor [16]): potent and highly selective agonists

CC(C)Cn1c(=O)n(C)c(=O)c2[nH]cnc21 [IBMX, isobutylmethylxanthine, reference compound]
phosphodiesterase inhibition (phosphodiesterase): inhibits phosphodiesterase

Nc1ncnc2c1ncn2[C@@H]1O[C@H](CO)[C@@H](O)[C@H]1O [Adenosine]
effectiveness in terminating PSVT [17]: > 90%

CCCn1c(=O)c2[nH]c([C@@H]3C[C@H]4C[C@@H]3[C@@H]3O[C@H]43)nc2n(CCC)c1=O [R-ENX]
IC50 [2]: 2600 nM
Ki [13]: 2.1 nM
IC50 [8]: 2.7 nM
duration of action (A1 adenosine receptor [14]): very short duration of action as compared to the S-enantiomer
metabolism [18]: rapidly degraded or metabolized
tracheal smooth muscle relaxation / bronchodilation [11]: bronchodilators
relaxation of spontaneous tone in trachea ([11]; guinea pig trachea): induce relaxation of spontaneous tone

CC(C)NC[C@H](O)c1ccc(O)c(O)c1 [(-)Isoproterenol, reference compound]
cAMP accumulation increase above basal level (A1-adenosine receptor [19]): 57 fold
stimulated cAMP accumulated (A1-adenosine receptor [20]): 458 ± 41 pmol cAMP formed per 10 minutes
